Data: ChEMBL document CHEMBL4680322, “Mono- and bis-pyrazolophthalazines: Design, synthesis, cytotoxic activity, DNA/HSA binding and molecular docking studies” (Bioorg Med Chem, 2021)
The source made the active and inactive calls. The calls are words filed in the database; no cut-off is given here.

Key:
A549 [1] = experiment: Cytotoxicity against human A549 cells assessed as reduction in cell viability measured after 24 hrs by MTT assay; type: functional, cell-based; details: A549, 24 h
HepG2 = experiment: Cytotoxicity against human HepG2 cells assessed as reduction in cell viability measured after 24 hrs by MTT assay; type: functional, cell-based; details: HepG2, 24 h
MCF7 [2] = experiment: Cytotoxicity against human MCF7 cells assessed as reduction in cell viability measured after 24 hrs by MTT assay; type: functional, cell-based; details: MCF7, 24 h
HT-29 = experiment: Cytotoxicity against human HT-29 cells assessed as reduction in cell viability measured after 24 hrs by MTT assay; type: functional, cell-based; details: HT-29, 24 h
MCF-10A = experiment: Cytotoxicity against human MCF-10A cells assessed as reduction in cell viability; type: cell-based
MRC5 = experiment: Cytotoxicity against human MRC5 cells assessed as reduction in cell viability; type: cell-based
Albumin [3] = target: T1, Albumin (Homo sapiens, UniProt P02768); experiment: Binding affinity to human serum albumin assessed as alpha-helix perturbation with reduction in absorption intensity at 214 nm causing blue shift at 2 to 187 uM by UV-Visible spectroscopy; type: ADME, cell-free; details: dose 2-187 µM
T1 sequence (P02768 whole entry): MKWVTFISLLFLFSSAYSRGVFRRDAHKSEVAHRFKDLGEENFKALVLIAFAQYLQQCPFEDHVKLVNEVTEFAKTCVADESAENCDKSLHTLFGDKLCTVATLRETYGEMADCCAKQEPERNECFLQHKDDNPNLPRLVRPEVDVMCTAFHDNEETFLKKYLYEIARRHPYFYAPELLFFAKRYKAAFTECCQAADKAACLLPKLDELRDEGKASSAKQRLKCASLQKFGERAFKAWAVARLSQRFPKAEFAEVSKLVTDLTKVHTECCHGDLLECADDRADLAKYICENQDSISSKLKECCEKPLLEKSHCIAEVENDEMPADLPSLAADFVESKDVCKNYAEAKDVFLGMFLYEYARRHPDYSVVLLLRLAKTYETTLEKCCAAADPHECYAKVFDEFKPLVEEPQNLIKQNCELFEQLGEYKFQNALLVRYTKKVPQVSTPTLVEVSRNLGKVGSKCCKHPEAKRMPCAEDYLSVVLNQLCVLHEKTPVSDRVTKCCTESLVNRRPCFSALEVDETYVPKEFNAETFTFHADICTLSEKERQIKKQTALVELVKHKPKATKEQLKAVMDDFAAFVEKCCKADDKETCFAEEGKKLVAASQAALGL

Albumin [4] = target: T1, Albumin; experiment: Binding affinity to human serum albumin assessed as conformational changes at 2 to 187 uM by UV-Visible spectroscopy; type: ADME, cell-free; details: dose 2-187 µM
Albumin [5] = target: T1, Albumin; experiment: Binding affinity to human serum albumin assessed as microenvironmental changes at 2 to 187 uM by UV-Visible spectroscopy; type: ADME, cell-free; details: dose 2-187 µM
Albumin [6] = target: T1, Albumin; experiment: Binding affinity to human serum albumin assessed as apparent binding constant for protein-compound complex by B-H plot analysis; type: ADME, cell-free
Albumin [7] = target: T1, Albumin; experiment: Binding affinity to human serum albumin assessed as compound-protein complex stoichiometry ratio of 1:1 by B-H plot analysis; type: ADME, cell-free
Albumin [8] = target: T1, Albumin; experiment: Binding affinity to human serum albumin assessed as induction of secondary structural changes by measuring decrease in alpha content at 187 uM by circular dichroism spectroscopy relative to control; type: cell-free; parameters: scale not given: the % may be the effect or the level left
Albumin [9] = target: T1, Albumin; experiment: Binding affinity to human serum albumin assessed as zeta potential by measuring surface charge (reference value: -16.15 mV); type: ADME, cell-free
Albumin [10] = target: T1, Albumin; experiment: Binding affinity to human serum albumin assessed as change in hydrodynamic radius by dynamic light scattering analysis (reference value: 3.56 nanometer); type: ADME, cell-free
Calf thymus DNA [11] = experiment: Binding affinity to calf thymus DNA assessed as DNA-compound complex formation causing decrease in band intensity at 3 to 187 uM and pH 7.4 by UV-Visible spectroscopy; details: Bos taurus, dose 3-187 µM
Calf thymus DNA [12] = experiment: Binding affinity to calf thymus DNA assessed as DNA-compound complex formation causing decrease in lambda-max shift at 3 to 187 uM and pH 7.4 by UV-Visible spectroscopy; details: Bos taurus, dose 3-187 µM
Calf thymus DNA [13] = experiment: Binding affinity to calf thymus DNA assessed as compound-DNA complex stoichiometry ratio of 1:1 by B-H plot analysis; details: Bos taurus
Calf thymus DNA [14] = experiment: Binding affinity to calf thymus DNA assessed as apparent binding constant for DNA-compound complex by B-H plot analysis; details: Bos taurus
Calf thymus DNA [15] = experiment: Binding affinity to calf thymus DNA assessed as decrease in positive ellipticity by retaining basic CD spectrum shape at 187 uM by circular dichroism spectroscopy; details: Bos taurus
Calf thymus DNA [16] = experiment: Binding affinity to calf thymus DNA assessed as zeta potential (reference value: -24.16 mV); type: tissue-based; details: Bos taurus
A549 [17] = experiment: Potency index, ratio of doxorubicin IC50 to test compound IC50 for human A549 cells assessed as reduction in cell viability measured after 24 hrs by MTT assay; type: functional
MCF7 [18] = experiment: Potency index, ratio of doxorubicin IC50 to test compound IC50 for human MCF7 cells assessed as reduction in cell viability measured after 24 hrs by MTT assay; type: functional

SMILES	IC50 (A549 [1]) [µM]	IC50 (HepG2) [µM]	IC50 (MCF7 [2]) [µM]	IC50 (HT-29) [µM]	further results
COc1cccc2c1C(=O)c1c(O)c3c(c(O)c1C2=O)C[C@@](O)(C(=O)CO)C[C@@H]3O[C@H]1C[C@H](N)[C@H](O)[C@H](C)O1 [DOXORUBICIN]	2.31	2.32	1.77	1.13	IC50 (MCF-10A): 3.52 µM; IC50 (MRC5): 3.88 µM
N#CC1=C(N)n2c(=O)c3ccccc3c(=O)n2C1c1ccccc1OCCOc1ccccc1C1C(C#N)=C(N)n2c(=O)c3ccccc3c(=O)n21 (centres undefined)	1.35	11.6	0.49	3.71	IC50 (MCF-10A): 61.2 µM; IC50 (MRC5): 71.2 µM; Activity (Albumin [3]): Active; Activity (Albumin [4]): Active; Activity (Albumin [5]): Active; Kapp (Albumin [6]): 3.8 10^4/M; Activity (Albumin [7]): Active; Activity (Albumin [8]): 48.08%; Activity (Albumin [9]): -14.41 mV; Activity (Albumin [10]): 5.28 nm; Activity (Calf thymus DNA [11]): Active; Activity (Calf thymus DNA [12]): Active; Activity (Calf thymus DNA [13]): Active; Kapp (Calf thymus DNA [14]): 5 10^4/M; Activity (Calf thymus DNA [15]): -17.8 mV; Activity (Calf thymus DNA [16]): Active; Ratio IC50 (A549 [17]): 2; Ratio IC50 (MCF7 [18]): 2
N#CC1=C(N)n2c(=O)c3ccccc3c(=O)n2C1c1ccc(O)c([N+](=O)[O-])c1 (centres undefined)	47.5	19.5	77.4	124	–
COc1ccc(C2C(C#N)=C(N)n3c(=O)c4ccccc4c(=O)n32)cc1OC (centres undefined)	24.7	73.5	5.1	36.4	–
COc1ccccc1C1C(C#N)=C(N)n2c(=O)c3ccccc3c(=O)n21 (centres undefined)	627	697	455	79.7	–
N#CC1=C(N)n2c(=O)c3ccccc3c(=O)n2C1c1cccc(Cl)c1 (centres undefined)	11.6	28.2	7.84	69.3	–
N#CC1=C(N)n2c(=O)c3ccccc3c(=O)n2C1c1ccccc1Cl (centres undefined)	1.25	27.9	7.32	7.14	IC50 (MCF-10A): 213 µM; IC50 (MRC5): 388 µM; Activity (Albumin [3]): Active; Activity (Albumin [4]): Active; Activity (Albumin [5]): Active; Kapp (Albumin [6]): 5.2 10^3/M; Activity (Albumin [7]): Active; Activity (Albumin [8]): 47.71%; Activity (Albumin [9]): -13.25 mV; Activity (Albumin [10]): 5.13 nm; Activity (Calf thymus DNA [11]): Active; Activity (Calf thymus DNA [12]): Active; Activity (Calf thymus DNA [13]): Active; Kapp (Calf thymus DNA [14]): 4.2 10^4/M; Activity (Calf thymus DNA [15]): -18.1 mV; Activity (Calf thymus DNA [16]): Active
N#CC1=C(N)n2c(=O)c3ccccc3c(=O)n2C1c1ccc(OCCOc2ccc(C3C(C#N)=C(N)n4c(=O)c5ccccc5c(=O)n43)cc2)cc1 (centres undefined)	183	249	91.3	268	–
N#CC1=C(N)n2c(=O)c3ccccc3c(=O)n2C1c1ccc(Br)cc1 (centres undefined)	81.6	40.5	5.97	31	–
N#CC1=C(N)n2c(=O)c3ccccc3c(=O)n2C1c1ccccc1OCCCOc1ccccc1C1C(C#N)=C(N)n2c(=O)c3ccccc3c(=O)n21 (centres undefined)	104	104	35.2	44.6	–
N#CC1=C(N)n2c(=O)c3ccccc3c(=O)n2C1c1ccc(Cl)cc1 (centres undefined)	40.6	16.8	5.53	25.4	–
N#CC1=C(N)n2c(=O)c3ccccc3c(=O)n2C1c1cccc(C2C(C#N)=C(N)n3c(=O)c4ccccc4c(=O)n32)c1 (centres undefined)	18.2	50.8	8.66	186	–
N#CC1=C(N)n2c(=O)c3ccccc3c(=O)n2C1c1ccccc1OCCCCOc1ccccc1C1C(C#N)=C(N)n2c(=O)c3ccccc3c(=O)n21 (centres undefined)	111	244	44.6	82.4	–
N#CC1=C(N)n2c(=O)c3ccccc3c(=O)n2C1c1ccc([N+](=O)[O-])cc1 (centres undefined)	212	170	60.8	79.1	–
N#CC1=C(N)n2c(=O)c3ccccc3c(=O)n2C1c1cccc([N+](=O)[O-])c1 (centres undefined)	18.3	12.6	39.9	41.1	–
N#CC1=C(N)n2c(=O)c3ccccc3c(=O)n2C1c1ccc(OCCCOc2ccc(C3C(C#N)=C(N)n4c(=O)c5ccccc5c(=O)n43)cc2)cc1 (centres undefined)	2.47	36.2	0.66	3.1	–
COc1cccc(C2C(C#N)=C(N)n3c(=O)c4ccccc4c(=O)n32)c1 (centres undefined)	38.3	178	23.2	107	–
N#CC1=C(N)n2c(=O)c3ccccc3c(=O)n2C1c1ccc(Cl)cc1Cl (centres undefined)	64	11.4	10.4	1.56	–
N#CC1=C(N)n2c(=O)c3ccccc3c(=O)n2C1c1ccc(OCCCCOc2ccc(C3C(C#N)=C(N)n4c(=O)c5ccccc5c(=O)n43)cc2)cc1 (centres undefined)	264	426	155	419	–
COc1ccc(C2C(C#N)=C(N)n3c(=O)c4ccccc4c(=O)n32)cc1 (centres undefined)	39.8	93.8	23.9	66.5	–
N#CC1=C(N)n2c(=O)c3ccccc3c(=O)n2C1c1ccccc1 (centres undefined)	39.7	81.7	41.6	132	–
N#CC1=C(N)n2c(=O)c3ccccc3c(=O)n2C1c1ccc(C2C(C#N)=C(N)n3c(=O)c4ccccc4c(=O)n32)cc1 (centres undefined)	17.6	84.6	11.4	90.9	–
